Assay results from patent US20090326196A1 (priority 2006, published 2009).
Square brackets hold non-standard residues; d marks the D form. Peptide text beside a SMILES is read from it. Leu(5,5,5,5',5',5'-F6) = N[C@@H](CC(C(F)(F)F)C(F)(F)F)C(=O)O

Legend:
[1] = molecular target: T1, trypsin (from bovine pancreas, EC 3.4.21.4) (Bos taurus, UniProt P00760); experiment: in vitro; type: in vitro ADME
T1 construct: trypsin (from bovine pancreas, EC 3.4.21.4); from tissue; host or cells: bovine pancreas
T1 sequence (P00760 24-246): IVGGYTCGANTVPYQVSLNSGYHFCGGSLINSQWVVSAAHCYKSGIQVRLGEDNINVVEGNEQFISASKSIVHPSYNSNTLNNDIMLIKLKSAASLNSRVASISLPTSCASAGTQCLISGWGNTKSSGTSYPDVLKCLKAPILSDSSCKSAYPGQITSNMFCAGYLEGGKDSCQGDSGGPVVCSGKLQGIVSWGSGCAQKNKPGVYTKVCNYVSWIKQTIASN
Description: The proteolytic stability of peptides towards trypsin (from bovine pancreas, EC 3.4.21.4) was determined by an analytical RP-HPLC assay. […] The enzyme concentration (in 1 mM HCl) was determined by absorbance at 280 nm. […] The amount of enzyme was optimized so that kinetics of proteolytic reactions could be assayed by RP-HPLC (detection at 230 nm). The peptides were incubated with trypsin at 37° C. over a period of 3 h. Aliquots (10 μL) were taken at different reaction times, diluted with 0.2% TFA (440 μL) and stored at −80° C. […] The remaining full-length peptide concentration was normalized with respect to the initial concentration.
where A is the normalized concentration of peptides; k is the pseudo first order rate constant; t is the reaction time in mins; and [A]0 is the initial concentration of peptides. Each fragment cleaved from the full-length peptides was identified by ESI-MS so that cleavage patterns could be established and compared.

[2] = molecular target: DPP IV (from porcine kidney, EC 3.4.14.5) (Sus scrofa, UniProt P22411); conditions: for hydrolysis products by RP-HPLC (FIG. 38): F8: 48 h at 20 U/L and 1 h at 200 U/L, F89: 20 and 60 mins; for fragments detected after incubation with DPP IV: after 24 h incubation
Description: Proteolytic Stability. […] DPP IV has a relative specific requirement for substrate residues at P2, P1, P1′ and P2′ positions regarding the scissile Ala-Glu amide bond. Especially, at P1 position, Pro and Ala are highly favored. […] The proteolytic stability of peptides towards DPP IV (from porcine kidney, EC 3.4.14.5) was determined by analytical RP-HPLC assay (detection at 230 nm). A chromogenic substrate, Gly-Pro-p-nitroanilide, was employed to calibrate specific activity by measuring absorbance at 410 nm using Δε=8800 M^−1·cm^−1 in 100 mM Tris-HCl, pH 8.0. […] Reactions were quenched with 600 μL of 0.2% TFA at time intervals and stored on dry ice until the analysis. An analytical C18 column [J. T. Baker C18, 5 μm, 4 mm×250 mm] was used for separation and quantitation of intact and digested peptides with a binary solvent system can/H2O/0.1% TFA. First order rate constants were obtained as the fitted value±one standard deviation by fitting with the equation: […]
where A is the concentration of peptides; k the first order rate constant; t the reaction time in min; and [A]0 the initial concentration of peptides. The fragments derived from the full-length peptides were manually collected and identified by ESI-MS.

[3] = tested on: human red blood cells (hRBC); type: cell-based
Description: The selectivity with which the peptides are able to lyse bacterial cells compared to mammalian cells was interrogated by a hemolysis assay against human red blood cells (hRBC). […] Our results are consistent with this trend.
Fresh human red blood cells (hRBCs) were centrifuged at 3,500 rpm and washed with PBS buffer until the supernatant was clear. The hRBCs were then resuspended and diluted to a final concentration of 1% (v/v) in PBS and stored at 4° C. […] An aliquot (50 μL) of supernatant was transferred to a new 96-well plate containing 50 μL H2O in each well. The absorbance at 415 nm was measured using a plate reader. Wells containing melittin at 100-400 μg/mL served as positive controls, and wells containing only buffer and hRBCs served as negative controls. The percentage hemolysis was calculated using the equation:
where complete hemolysis is defined as the average absorbance of all wells containing 100-400 μg/[…] melittin.

[4] = tested on: trypsin (from bovine pancreas, EC 3.4.21.4); experiment: 1 μg trypsin in 200 μL of PBS buffer (pH 7.4, 10 mM PO4^3−, 150 mM NaCl); conditions: 37° C., up to 3 h
[5] = tested on: DPP IV (from porcine kidney, EC 3.4.14.5); experiment: DPP IV 20 unit/L in 50 mM Tris-HCl, 1 mM EDTA, pH 7.6; conditions: 37° C., up to 48 h
[6] = tested on: trypsin (from bovine pancreas, EC 3.4.21.4); experiment: 0.5 μg trypsin in 200 μL of PBS buffer (pH 7.4, 10 mM PO4^3−, 150 mM NaCl); conditions: 37° C., up to 3 h

Sequence of DPP IV (from porcine kidney, EC 3.4.14.5) (Sus scrofa, UniProt P22411) (P22411 whole entry, the tested form may be a part): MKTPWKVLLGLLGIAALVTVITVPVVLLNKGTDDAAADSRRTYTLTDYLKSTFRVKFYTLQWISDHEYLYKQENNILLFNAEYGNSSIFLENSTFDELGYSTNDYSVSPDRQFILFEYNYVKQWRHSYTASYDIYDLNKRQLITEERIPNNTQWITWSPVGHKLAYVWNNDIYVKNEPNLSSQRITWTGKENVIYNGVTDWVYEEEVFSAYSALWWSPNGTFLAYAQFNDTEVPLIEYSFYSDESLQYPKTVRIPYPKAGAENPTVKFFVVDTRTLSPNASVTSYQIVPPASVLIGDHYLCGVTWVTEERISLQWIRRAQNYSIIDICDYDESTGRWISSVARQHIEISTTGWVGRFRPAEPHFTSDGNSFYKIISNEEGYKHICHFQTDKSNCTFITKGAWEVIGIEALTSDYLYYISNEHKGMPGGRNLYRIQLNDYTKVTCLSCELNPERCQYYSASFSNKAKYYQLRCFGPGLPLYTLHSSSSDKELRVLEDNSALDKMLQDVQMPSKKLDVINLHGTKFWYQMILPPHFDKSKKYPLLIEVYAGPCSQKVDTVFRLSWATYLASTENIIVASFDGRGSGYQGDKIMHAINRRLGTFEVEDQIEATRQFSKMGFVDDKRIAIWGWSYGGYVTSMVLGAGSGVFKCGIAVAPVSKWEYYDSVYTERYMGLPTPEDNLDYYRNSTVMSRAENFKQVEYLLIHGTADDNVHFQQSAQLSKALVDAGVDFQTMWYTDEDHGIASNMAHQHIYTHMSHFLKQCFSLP

Compound: CC(C)C[C@H](NC(=O)CNC(=O)[C@H](C)NC(=O)[C@@H](N)CCCNC(=N)N)C(=O)N[C@@H](CCC(N)=O)C(=O)N[C@@H](Cc1ccccc1)C(=O)N1CCC[C@H]1C(=O)N[C@H](C(=O)NCC(=O)N[C@@H](CCCNC(=N)N)C(=O)N[C@H](C(=O)N[C@@H](Cc1c[nH]cn1)C(=O)N[C@@H](CCCNC(=N)N)C(=O)N[C@@H](CC(C(F)(F)F)C(F)(F)F)C(=O)N[C@@H](CC(C(F)(F)F)C(F)(F)F)C(=O)N[C@@H](CCCNC(=N)N)C(=O)N[C@@H](CCCCN)C(=O)O)C(C)C)C(C)C [BII5F2] (H-RAGLQFPVGRVHR[Leu(5,5,5,5',5',5'-F6)][Leu(5,5,5,5',5',5'-F6)]RK-OH)
- fold more resistant to hydrolysis by trypsin [1]: ~3 fold

Compound: CC[C@H](C)[C@H](NC(=O)[C@H](Cc1ccccc1)NC(=O)[C@H](CCC(=O)O)NC(=O)[C@H](CCCCN)NC(=O)[C@H](C)NC(=O)[C@H](C)NC(=O)[C@H](CCC(N)=O)NC(=O)CNC(=O)[C@H](CCC(=O)O)NC(=O)[C@H](CC(C)C)NC(=O)[C@H](Cc1ccc(O)cc1)NC(=O)[C@H](CO)NC(=O)[C@H](CO)NC(=O)[C@@H](NC(=O)[C@H](CC(=O)O)NC(=O)[C@H](CO)NC(=O)[C@@H](NC(=O)[C@H](Cc1ccccc1)NC(=O)[C@@H](NC(=O)CNC(=O)[C@H](CCC(=O)O)NC(=O)[C@H](CC(C(F)(F)F)C(F)(F)F)NC(=O)[C@@H](N)Cc1cnc[nH]1)[C@@H](C)O)[C@@H](C)O)C(C)C)C(=O)N[C@@H](C)C(=O)N[C@@H](Cc1c[nH]c2ccccc12)C(=O)N[C@@H](CC(C)C)C(=O)N[C@H](C(=O)N[C@@H](CCCCN)C(=O)NCC(=O)N[C@@H](CCCNC(=N)N)C(N)=O)C(C)C [Peptide F8]
- hydrolysis products by RP-HPLC (FIG. 38) [2]: No detectable hydrolysis products
- fragments detected after incubation with DPP IV [2]: no fragments were detected

Compound: CC[C@H](C)[C@H](NC(=O)[C@H](Cc1ccccc1)NC(=O)[C@H](CCC(=O)O)NC(=O)[C@H](CCCCN)NC(=O)[C@H](C)NC(=O)[C@H](C)NC(=O)[C@H](CCC(N)=O)NC(=O)CNC(=O)[C@H](CCC(=O)O)NC(=O)[C@H](CC(C)C)NC(=O)[C@H](Cc1ccc(O)cc1)NC(=O)[C@H](CO)NC(=O)[C@H](CO)NC(=O)[C@@H](NC(=O)[C@H](CC(=O)O)NC(=O)[C@H](CO)NC(=O)[C@@H](NC(=O)[C@H](Cc1ccccc1)NC(=O)[C@@H](NC(=O)CNC(=O)[C@H](CC(C(F)(F)F)C(F)(F)F)NC(=O)[C@H](C)NC(=O)[C@@H](N)Cc1c[nH]cn1)[C@@H](C)O)[C@@H](C)O)C(C)C)C(=O)N[C@@H](C)C(=O)N[C@@H](Cc1c[nH]c2ccccc12)C(=O)N[C@@H](CC(C)C)C(=O)N[C@H](C(=O)N[C@@H](CCCCN)C(=O)NCC(=O)N[C@@H](CCCNC(=N)N)C(N)=O)C(C)C [Peptide F9]
- resistance to DPP IV, in words ([2]; hexafluoroleucine at P1′ and P2′ positions): moderate enhanced resistance

Compound: CC[C@H](C)[C@H](NC(=O)[C@H](Cc1ccccc1)NC(=O)[C@H](CCC(=O)O)NC(=O)[C@H](CCCCN)NC(=O)[C@H](C)NC(=O)[C@H](C)NC(=O)[C@H](CCC(N)=O)NC(=O)CNC(=O)[C@H](CCC(=O)O)NC(=O)[C@H](CC(C)C)NC(=O)[C@H](Cc1ccc(O)cc1)NC(=O)[C@H](CO)NC(=O)[C@H](CO)NC(=O)[C@@H](NC(=O)[C@H](CC(=O)O)NC(=O)[C@H](CO)NC(=O)[C@@H](NC(=O)[C@H](Cc1ccccc1)NC(=O)[C@@H](NC(=O)CNC(=O)[C@H](CC(C(F)(F)F)C(F)(F)F)NC(=O)[C@H](CC(C(F)(F)F)C(F)(F)F)NC(=O)[C@@H](N)Cc1cnc[nH]1)[C@@H](C)O)[C@@H](C)O)C(C)C)C(=O)N[C@@H](C)C(=O)N[C@@H](Cc1c[nH]c2ccccc12)C(=O)N[C@@H](CC(C)C)C(=O)N[C@H](C(=O)N[C@@H](CCCCN)C(=O)NCC(=O)N[C@@H](CCCNC(=N)N)C(N)=O)C(C)C [Peptide F89]
- hydrolysis products by RP-HPLC (FIG. 38) [2]: No detectable hydrolysis products
- fragments detected after incubation with DPP IV [2]: no fragments were detected

Compound: CC[C@H](C)[C@H](NC(=O)CN)C(=O)NCC(=O)N[C@@H](CCCCN)C(=O)N[C@@H](Cc1ccccc1)C(=O)N[C@@H](CC(C(F)(F)F)C(F)(F)F)C(=O)N[C@@H](Cc1cnc[nH]1)C(=O)N[C@@H](C)C(=O)N[C@@H](C)C(=O)N[C@@H](CCCCN)C(=O)N[C@@H](CCCCN)C(=O)N[C@@H](Cc1ccccc1)C(=O)N[C@@H](C)C(=O)N[C@@H](CCCCN)C(=O)N[C@@H](C)C(=O)N[C@@H](Cc1ccccc1)C(=O)N[C@H](C(=O)N[C@@H](C)C(=O)N[C@@H](CCC(=O)O)C(=O)N[C@@H](CC(C(F)(F)F)C(F)(F)F)C(=O)N[C@@H](CCSC)C(=O)N[C@@H](CC(N)=O)C(=O)N[C@@H](CO)C(N)=O)C(C)C [Peptide M2F2] (H-GIGKF[Leu(5,5,5,5',5',5'-F6)]HAAKKFAKAFVAE[Leu(5,5,5,5',5',5'-F6)]MNS-NH2)
- hemolytic activity relative to parent peptide, in words [3]: slightly more hemolytic
- more stable to proteolysis by a factor, relative to M2 [1]: ~1.2

Compound: GIGKFLHAAKKFAKAFVAEIMNS
- fragment found [4]: M2 (1-14), first_seen

Compound: GIGKFXHAAKKFAKAFVAEXMNS
- fragment found [4]: M2F2 (1-14), first_seen

Compound: HAXGTFTSDVSSYLEGQAAKEFIAWLVKGR
- fragment found [5]: corresponding peptide fragment GLP-1 (9-36) amide, major

Compound: HXEGTFTSDVSSYLEGQAAKEFIAWLVKGR
- not cleaved [5]: no fragments were detected after 24 h incubation

Compound: HXXGTFTSDVSSYLEGQAAKEFIAWLVKGR
- not cleaved [5]: no fragments were detected after 24 h incubation

Compound: TRSSRAGLQFPVGRVHRXXRK
- cleaved bond [6]: initial P1 site of cleavage BII1F2 (R14), first_seen
- fragment found [6]: BII1F2 (6-21), first_seen

Compound: buforin II[1-21] [BII1, reference compound]
- initial P1 site of cleavage [1]: R17

Compound: magainin 2 [Peptide M2, reference compound]
- time to complete hydrolysis [1]: 33 min
